In patent US20090163567A1 (priority 2005, published 2009):
Read-outs that look alike come from different tables or passages of the source.

Columns and labels:
[1] = tested on: Grape Downy Mildew; experiment: Test on preventive effect against grape downy mildew (leaf disks test); assay type: in vivo, grapes (cultivar: Neomuscat)
Text: Leaf disks having a diameter of 1 cm were punched out with leaf puncher from leaves of grapes (cultivar: Neomuscat), and a drug solution having the respective test compounds adjusted to the predetermined concentrations (applied amount: 500 L/ha), was applied to the leaf disks by means of an indoor spray equipment. After the applied solution dried, the leaf disks were transferred to petri dishes having a diameter of 3 cm, a suspension of zoosporangium of Grape Downy Mildew was dropwise applied, and the leaf disks were inoculated. They were kept in a chamber at 20° C. for 10 days. Then, the disease severity index of each disk was investigated by the following standards, and the disease severity was obtained by the following formula.
The disease severity in non-treated area was obtained in the same manner as in the treated area except that instead of the drug solution, water was applied by means of an auto sprayer.
Disease outbreak index 0: No sporogenesis is observed.
Disease severity index 1: The sporogenesis area is less than 10% of the drop area.
Disease severity index 2: The sporogenesis area is from 10% to less than 50% of the drop area.
Disease severity index 3: The sporogenesis area is from 50% to less than 90% of the drop area.
Disease severity index 4: The sporogenesis area is at least 90% of the drop area.
Disease severity=[(0×A+1×B+2×C+3×D+4×E)/{4×(A+B+C+D+E)}]×100
where A is the number of disks with disease severity index 0, B is the number of disks with disease severity index 1, C is the number of disks with disease severity index 2, D is the number of disks with disease severity index 3, and E is the number of disks with disease severity index 4.
(§1) Further, a theoretical value can be calculated by the Colby formula. If the experimental value is lower than the theoretical value by the Colby formula, the fungicidal composition for agricultural or horticultural use of the present invention has a synergistic effect for controlling the plant disease. In this context, the theoretical values by the Colby formula are also shown in brackets ( ) in Tables 9 and 10.

[2] = tested on: tomato late blight; assay type: in vivo, Tomato (cultivar: Ponderosa)
[3] = tested on: cucumber downy mildew; experiment: Test on preventive effect against cucumber downy mildew; assay type: in vivo, Cucumber (cultivar: Sagamihanshirofushinari)
Method: Cucumber (cultivar: Sagamihanshirofushinari) was cultivated in a polyethylene pot having a diameter of 7.5 cm, and when the cucumber reached two-leaf stage, a drug solution having the respective test compounds adjusted to the predetermined concentrations (applied amount: 1000 L/ha), was applied by means of a spray gun. After the applied solution dried, the cucumber was sprayed and inoculated with a suspension of spores of cucumber downy mildew and kept in a humidified chamber at 20° C. for 20 hours. Thereafter, the cucumber was kept in a thermostatic chamber at 20° C. for 7 days, whereupon the lesion area rate was obtained. Here, the lesion area rate is a value obtained in such a manner that lesion area of Downy Mildew of specimen leaves was obtained by visual examination, and its ratio to the total area of specimen leaves is shown by percent.
(§2) The lesion area ratio in non-treated area was obtained in the same manner as in the treated area except that instead of the drug solution, water was applied by means of a spray gun.
as §1, with “1” for “9”, “2.” for “10.”

[4] = tested on: tomato late blight; assay type: in vivo, Tomato (cultivar: Ponderosa); details: Test Example 4 (curative)
[5] = tested on: cucumber downy mildew; experiment: Test on curative effect against cucumber downy mildew; assay type: in vivo, Cucumber (cultivar: Sagamihanshirofushinari)
Method: Cucumber (cultivar: Sagamihanshirofushinari) was cultivated in a polyethylene pot having a diameter of 7.5 cm, and when it reached two-leaf stage, the cucumber was sprayed and inoculated with a suspension of spores of cucumber downy mildew and kept in a humidified chamber at 20° C. for 20 hours. Then, after drying the crop plant, a drug solution having the respective test compounds adjusted to the predetermined concentrations, was applied in a sufficient amount (20 ml) by means of a spray gun. After the sprayed solution dried, it was kept in a thermostatic chamber at 20° C. for 5 days, whereupon the lesion area ratio was obtained. The results are shown in is Tables 3 and 4.
as §2
as §1, with “3” for “9”, “4.” for “10.”

Q: For `COC(=O)[C@@H](C)N(C(=O)Cc1ccccc1)c1c(C)cccc1C` [Benalaxyl-M], which “Disease severity in the test on preventive effect against grape downy mildew” value ([1]; Benalaxyl-M 0.024 ppm alone) is on record?
A: The value was 100.

Q: And the “Disease severity in the test on preventive effect against tomato late blight” value (shortened to “Disease severity … against tomato late blight”) ([2]; Benalaxyl-M 25 ppm alone)?
A: The value was 100.

Q: What about the “Disease severity … against tomato late blight” value ([2]; Benalaxyl-M 100 ppm alone) of the same compound?
A: Its value is 100.

Q: And the “Lesion area ratio in the test on preventive effect against cucumber downy mildew” value ([3]; Benalaxyl-M 25 ppm alone)?
A: Its value is 100%.

Q: And the “Disease severity … against tomato late blight” value ([4]; Benalaxyl-M 50 ppm alone)?
A: Its value is 94.

Q: And the “Disease severity … against tomato late blight” value ([4]; Benalaxyl-M 200 ppm alone)?
A: Its value is 75.

Q: What about the “Lesion area ratio in the test on curative effect against cucumber downy mildew” value ([5]; Benalaxyl-M 400 ppm alone) of the same compound?
A: The value was 100%.

Q: What does the source list for `Cc1ccc(-c2c(Cl)nc(C#N)n2S(=O)(=O)N(C)C)cc1` [Compound No. 1, 4-chloro-2-cyano-1-dimethylsulfamoyl-5-(4-methylphenyl) imidazole]?
A: Disease severity in the test on preventive effect against grape downy mildew ([1]; Compound No. 1 0.098 ppm alone): 100; Disease severity in the test on preventive effect against grape downy mildew ([1]; Compound No. 1 0.39 ppm alone): 40; Disease severity in the test on preventive effect against tomato late blight ([2]; Compound No. 1 1.6 ppm alone): 19; Disease severity in the test on preventive effect against tomato late blight ([2]; Compound No. 1 6.3 ppm alone): 12; Lesion area ratio in the test on preventive effect against cucumber downy mildew ([3]; Compound No. 1 0.2 ppm alone): 10%; Disease severity in the test on preventive effect against tomato late blight ([4]; Compound No. 1 50 ppm alone): 100; Disease severity in the test on preventive effect against tomato late blight ([4]; Compound No. 1 400 ppm alone): 94; Lesion area ratio in the test on curative effect against cucumber downy mildew ([5]; Compound No. 1 50 ppm alone): 100%; Lesion area ratio in the test on curative effect against cucumber downy mildew ([5]; Compound No. 1 200 ppm alone): 100%

Q: Which results are given for `COc1ccc(/C(=C\C(=O)N2CCOCC2)c2ccc(F)cc2)cc1OC` [Flumorph]?
A: Disease severity in the test on preventive effect against grape downy mildew ([1]; Flumorph 1.6 ppm alone): 40; Disease severity in the test on preventive effect against tomato late blight ([2]; Flumorph 6.3 ppm alone): 100; Disease severity in the test on preventive effect against tomato late blight ([2]; Flumorph 12.5 ppm alone): 100; Lesion area ratio in the test on preventive effect against cucumber downy mildew ([3]; Flumorph 12.5 ppm alone): 20%; Disease severity in the test on preventive effect against tomato late blight ([4]; Flumorph 50 ppm alone): 100; Disease severity in the test on preventive effect against tomato late blight ([4]; Flumorph 200 ppm alone): 37; Lesion area ratio in the test on curative effect against cucumber downy mildew ([5]; Flumorph 400 ppm alone): 90%
